pIC50, pKi: −log10 of the molar value.

The target in assay [1] is T1, mu-opioid receptor (Homo sapiens, UniProt P35372). Briefly: GTPγS functional binding assay (DAMGO-stimulated). As to conditions: mu-opioid receptor expressing membranes, agonist DAMGO 10 nM, 35S-GTPγS binding. Format: biochemical. How it is done:
GTPγS Functional Binding Assays
Mu-, kappa- or delta-opioid receptor expressing membranes (5-20 μg/well) were suspended in 50 mM HEPES buffer pH 7.6 containing 3 mM MgCl2, 120 mM NaCl, 150 pM GTPγS, 10 μg/mL saponin and 3 μM GDP (μ-opioid receptor assay) or 5 μM GDP (κ- and δ-opioid receptor assay) and were pre-incubated on 96-well plates with test compound or vehicle (1% DMSO) in a total volume of 160 μL for 10 min at rt (22° C.). Specific agonists DAMGO (10 nM final concentration), U-50,488 (30 nM final concentration) or SNC-80 (10 nM final concentration) were added respectively and the plates pre-incubated for a further 15 min at rt (22° C.) ^35S-GTPγS at a final concentration in the assay of 150 pM was then added to provide a total volume per well of 200 μL and the plates incubated for 45 min at 30° C. The contents of the wells were filtered and washed 5 times with chilled 50 mM Tris buffer pH 7.6 through H2O pre-soaked GF/B filters using a Perkin Elmer Filtermate. The filters were dried and upon application of scintillant the bound radioactive content for each well determined by scintillation counting in a Wallac TriLux Microbeta scintillation counter. Non-specific binding was determined in the presence of 10 μM GTPγS. IC50 values were determined by plotting log concentration test compound against percentage increase over non-stimulated ^35S-GTPγS binding.
A general note: GTPγS resists hydrolysis and so accumulates on activated G proteins.

The target of assay [2] is T1, mu-opioid receptor. Briefly: Competition binding assay (3H-DAMGO). As to conditions: mu-opioid receptor expressing membranes, 0.5 nM 3H-DAMGO. As to the method: Competition Binding Assays
Mu-, kappa- or delta-opioid receptor expressing membranes (5-15 μg/well) were suspended in 50 mM Tris buffer pH 7.6 containing 5 mM MgCl2 and were incubated on 96-well plates with test compound or vehicle (1% DMSO) and either 0.5 nM ^3H-DAMGO, 0.8 nM ^3H-U-69,595 or 1.1 nM ^3H-DPDPE respectively in a total volume of 200 μL for 90 min at rt (22° C.). The contents of the wells were filtered and washed 5 times with chilled 50 mM Tris buffer pH 7.6 through H2O pre-soaked GF/B filters using a Perkin Elmer Filtermate. The filters were dried and upon application of scintillant the bound radioactive content for each well determined by scintillation counting in a Wallac TriLux Microbeta scintillation counter. Non-specific binding was determined in the presence of 2 μM Naloxone. IC50 values were determined by plotting log concentration test compound against specific binding and subsequent Ki values calculated.

T1 sequence (P35372 whole entry, species assumed): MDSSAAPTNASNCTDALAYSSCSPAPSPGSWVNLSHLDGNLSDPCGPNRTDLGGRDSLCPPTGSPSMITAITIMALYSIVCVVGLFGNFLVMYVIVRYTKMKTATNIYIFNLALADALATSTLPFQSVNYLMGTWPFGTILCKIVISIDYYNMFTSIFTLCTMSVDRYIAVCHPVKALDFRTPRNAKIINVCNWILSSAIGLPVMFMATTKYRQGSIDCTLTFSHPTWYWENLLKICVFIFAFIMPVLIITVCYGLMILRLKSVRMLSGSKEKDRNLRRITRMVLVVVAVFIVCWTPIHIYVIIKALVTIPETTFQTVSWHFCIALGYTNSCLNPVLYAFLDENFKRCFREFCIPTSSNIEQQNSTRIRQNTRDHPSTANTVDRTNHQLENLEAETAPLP

As for `Cc1cc(CNCCC2C3CC4CC(C3)CC2C4)ccc1-c1cccc(C(N)=O)c1` (stereo not shown) [Example 46, 4′-[(2-Adamantan-2-yl-ethylamino)methyl]-2′-methylbiphenyl-3-carboxylic acid amide], the pIC50 (commonly the negative decadic logarithm of the IC50, by convention in mol/L) in assay [1] is above 7.00. The pKi (usually the negative decadic logarithm of the Ki, by convention in mol/L) in assay [2] is above 7.00.

With `NC(=O)c1cccc(-c2ccc(CNCCC3C4CC5CC(C4)CC3C5)cn2)c1` (stereo not shown) [Example 84, 3-{5-[(2-Adamantan-2-ylethylamino)methyl]-pyridin-2-yl}benzamide], the pIC50 in assay [1] was above 7.00. In assay [2], this compound showed a negative logarithm of the Ki (pKi) above 7.00.
